Experimental data from article PMC7503281, “The Structure of Clostridioides difficile SecA2 ATPase Exposes Regions Responsible for Differential Target Recognition of the SecA1 and SecA2-Dependent Systems” (International Journal of Molecular Sciences, 2020).

Target: T1, CDSecA2 (Clostridioides difficile, UniProt Q183M9)
T1 construct: gene secA2; pMCSG7, E. coli BL21(DE3); His tag cut by TEV, extra N-terminal SNAAA kept; monomer in crystal
Assay: X-ray crystallography (cocrystallization)
Format: binding
Settings: 2 mM ATP-γ-S, 4 mM MgCl2, pH 8.3, 20 °C; active site between NBD1 and NBD2, Walker A/B

T1 sequence (Q183M9 whole entry): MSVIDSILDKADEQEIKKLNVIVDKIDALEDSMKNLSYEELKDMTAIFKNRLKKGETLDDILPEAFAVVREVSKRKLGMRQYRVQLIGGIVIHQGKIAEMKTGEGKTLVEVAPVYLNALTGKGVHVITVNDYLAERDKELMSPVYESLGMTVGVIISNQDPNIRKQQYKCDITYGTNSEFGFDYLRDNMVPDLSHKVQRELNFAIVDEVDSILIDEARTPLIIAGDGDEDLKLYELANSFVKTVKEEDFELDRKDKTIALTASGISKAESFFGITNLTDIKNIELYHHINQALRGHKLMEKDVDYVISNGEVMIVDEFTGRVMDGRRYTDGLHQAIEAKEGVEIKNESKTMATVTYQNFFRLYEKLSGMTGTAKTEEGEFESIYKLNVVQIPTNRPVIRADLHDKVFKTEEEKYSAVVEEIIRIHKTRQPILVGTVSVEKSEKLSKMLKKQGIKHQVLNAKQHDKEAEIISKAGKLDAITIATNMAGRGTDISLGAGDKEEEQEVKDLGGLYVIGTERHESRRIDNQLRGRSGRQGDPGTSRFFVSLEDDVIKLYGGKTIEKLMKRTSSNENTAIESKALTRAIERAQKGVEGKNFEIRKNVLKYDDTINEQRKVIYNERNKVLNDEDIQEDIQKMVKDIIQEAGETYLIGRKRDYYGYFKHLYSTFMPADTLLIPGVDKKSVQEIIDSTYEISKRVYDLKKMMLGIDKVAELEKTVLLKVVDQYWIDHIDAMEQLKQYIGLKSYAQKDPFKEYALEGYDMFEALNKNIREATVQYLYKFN

## Nc1ncnc2c1ncn2[C@@H]1O[C@H](COP(=O)(O)OP(=O)(O)OP(O)(O)=S)[C@@H](O)[C@H]1O [ATP-γ-S, adenosine-5′-(γ-thio)-triphosphate]
  X-ray crystallography (cocrystallization): the electron density map for the ATP-γ-S ligand unambiguously positioned it in the active site
